Reference: PMC12111648, “New Dimethoxyaryl-Sesquiterpene Derivatives with Cytotoxic Activity Against MCF-7 Breast Cancer Cells: From Synthesis to Topoisomerase I/II Inhibition and Cell Death Mechanism Studies” (International Journal of Molecular Sciences, 2025)

Assays:
MCF-7 cells = test: MTT cytotoxicity assay on MCF-7 cells; format: cell-based, human; settings: for IC50: MTT, 48 h incubation, IC50 ± SD, three experiments in triplicate; for Selectivity Index (SI): SI = IC50 on MCF-10 cells/IC50 on MCF-7 cells
Method: (§1) In this study, we wondered whether semi-synthetic compounds have potential antitumoral properties against BC. Therefore, we were interested in investigating the effect of the compounds on the MCF-7 cell line. Firstly, we studied the effect on cell viability using a colorimetric MTT assay, which was performed to quantify the cytotoxic activity; each compound was evaluated at different concentrations (500−100−20−4−0.8−0.16−0.032−0 µM). Daunorubicin was also used as a positive control for comparison with a reference drug. […] Although the MCF-10 cell line provides a useful selectivity model, it may not fully represent the varying sensitivities of different normal cell types within a multicellular organism. The SI value indicates the ratio of toxicity in mammalian host cells to that in a tumoral cell. The data obtained in response to different concentrations of compounds were used to calculate the IC50 and corresponding SI values, as shown in Table 1.
(§2) The American Type Culture Collection (Rockville, MD, USA) supplied the following experimental cell lines: MCF-7, a human breast cancer cell line, and MCF-10A, a human epithelial breast cell line (ATCC N° CRL-10317). Both cell lines were grown in DMEM-F12 medium containing 10% FCS, 100 U/mL penicillin, 100 μg/mL streptomycin, and 1 mM glutamine. The cells were seeded at a concentration of 100 μL per well at a plating density of 3 × 10^3 cells/well and incubated for 24 h at 37 °C under 5% humidified CO2 to enable attachment. The cells were then treated with varying concentrations of synthesized compounds for […] under the same conditions. The compound stock solution was prepared in DMSO, and the final concentration of DMSO was kept at 0.1%. Control cultures were treated with only 1% ethanol.
(§3) Cells from the MCF-7 and MCF-10 lines were seeded into 96-well plates at a density of 1 × 10^4 per well. After 24 h, the compounds were added at increasing concentrations (500–100–20-4–0.8–0.16–0.032–0 µM), and the cells were incubated at 37 °C in a humidified 5% CO2/95% air mixture for 48 h. Following incubation, the cells were washed twice with PBS, and 100 μL of 0.5 mg/mL MTT solution was added to each well. After 2 h of incubation, the MTT solution was removed, and the formazan crystals were dissolved in 50 μL of DMSO per well. Absorbance was then measured at 570 nm using a microplate ELISA reader. IC50 values, determined from three independent experiments conducted in triplicate, were calculated using SigmaPlot® software (version 11.0). The selectivity index (SI) of each compound in each cell line was determined by calculating the ratio of the IC50 values for MCF-10 and cancer cell lines. Compounds were considered selective if SI values were equal to or greater than 3 [46].

MCF-10 cells = test: MTT cytotoxicity assay on non-tumoral MCF-10 cells; format: cell-based, human; settings: IC50 ± SD, three experiments in triplicate
Method: as §1, §2, §3

[1] = Homo sapiens, MCF10, 48 h incubation

| Compound | IC50 (MCF-7 cells; Homo sapiens, MCF7) [µM] | Selectivity Index (SI) (MCF-7 cells) | IC50 (MCF-10 cells; [1]) [µM] | IC50 (MCF-7 cells) [µM] | IC50 (MCF-10 cells; 48 h incubation) [µM] |
| --- | --- | --- | --- | --- | --- |
| COc1ccc([C@@H](O)[C@H]2C(C)=CCC3C(C)(C)CCC[C@@]32C)c(OC)c1 (stereo partly drawn) [Compound 10a, (1S)-(2,4-Dimethoxyphenyl)((1S,8aS)-2,5,5,8a-tetramethyl-1,4,4a,5,6,7,8,8a-octahydronaphthalen-1-yl) methanol] | 74.2 ± 7 | 0.7 | 53.2 ± 10 |  |  |
| COc1ccc(OC)c([C@@H](O)[C@H]2C(C)=CCC3C(C)(C)CCC[C@@]32C)c1 (stereo partly drawn) [Compound 10b, (1S)-(2,5-Dimethoxyphenyl)((1S,8aS)-2,5,5,8a-tetramethyl-1,4,4a,5,6,7,8,8a-octahydronaphthalen-1-yl)methanol] | 131 ± 26.6 | 0.1 | 10.1 ± 3 |  |  |
| COc1cc(OC)cc([C@@H](O)[C@H]2C(C)=CCC3C(C)(C)CCC[C@@]32C)c1 (stereo partly drawn) [Compound 10d, (1S)-(3,5-Dimethoxyphenyl)((1S,8aS)-2,5,5,8a-tetramethyl-1,4,4a,5,6,7,8,8a-octahydronaphthalen-1-yl)methanol] | 126 ± 11.5 | 0.1 | 12.3 ± 3.1 |  |  |
| COc1ccc(C[C@H]2C(C)=CCC3C(C)(C)CCC[C@@]32C)c(OC)c1 (stereo partly drawn) [Compound 11a, (4aS,5S)-5-(2,4-Dimethoxybenzyl)-1,1,4a,6-tetramethyl-1,2,3,4,4a,5,8,8a-octahydronaphthalene] | 75.2 ± 11.3 | 1.0 | 76.7 ± 3 |  |  |
| COc1ccc(OC)c(C[C@H]2C(C)=CCC3C(C)(C)CCC[C@@]32C)c1 (stereo partly drawn) [Compound 11b, (4aS,5S)-5-(2,5-Dimethoxybenzyl)-1,1,4a,6-tetramethyl-1,2,3,4,4a,5,8,8a-octahydronaphthalene] | 133 ± 14.9 | 0.4 | 54.4 ± 3.5 |  |  |
| COc1ccc(C(=O)[C@H]2C(C)=CCC3C(C)(C)CCC[C@@]32C)c(OC)c1 (stereo partly drawn) [Compound 12a, (2,4-Dimethoxyphenyl)((1S,8aS)-2,5,5,8a-tetramethyl-1,4,4a,5,6,7,8,8a-octahydronaphthalen-1-yl)methanone] | 56.2 ± 7.3 | 0.8 | 45.4 ± 4.8 |  |  |
| COc1ccc(OC)c(C(=O)[C@H]2C(C)=CCC3C(C)(C)CCC[C@@]32C)c1 (stereo partly drawn) [Compound 12b, (2,5-Dimethoxyphenyl)((1S,8aS)-2,5,5,8a-tetramethyl-1,4,4a,5,6,7,8,8a-octahydronaphthalen-1-yl)methanone] | 88.1 ± 19.9 | 0.8 | 72.7 ± 4.3 |  |  |
| COc1cc(OC)cc(C(=O)[C@H]2C(C)=CCC3C(C)(C)CCC[C@@]32C)c1 (stereo partly drawn) [Compound 12d, (3,5-Dimethoxyphenyl)((1S,8aS)-2,5,5,8a-tetramethyl-1,4,4a,5,6,7,8,8a-octahydronaphthalen-1-yl)methanone] | 112 ± 25.4 | 1.0 | 107 ± 15.4 |  |  |
| COc1ccc(/C=C2\C(C)=CCC3C(C)(C)CCC[C@]23C)c(OC)c1 (stereo partly drawn) [Compound 13a, (4aS)-5-((E)-2,4-Dimethoxybenzylidene)-1,1,4a,6-tetramethyl-1,2,3,4,4a,5,8,8a-octahydronaphthalene] | 48.9 ± 8 | 1.4 | 70.9 ± 15.1 |  |  |
| COc1cc(OC)c2c(c1)[C@]1(C)CCC3C(C)(C)CCC[C@]3(C)C1=C2 (stereo partly drawn) [Compound 14a, (6aR,11bS)-8,10-Dimethoxy-4,4,6a,11b-tetramethyl-2,3,4,4a,5,6,6a,11b-octahydro-1H-benzo[a]fluorene] | 8.4 ± 1.8 | 6.3 | 52.4 ± 3.5 |  |  |
| COc1cc2c(c(OC)c1)[C@]1(C)CCC3C(C)(C)CCC[C@]3(C)C1=C2 (stereo partly drawn) [Compound 14d, (6aR,11bS)-7,9-Dimethoxy-4,4,6a,11b-tetramethyl-2,3,4,4a,5,6,6a,11b-octahydro-1H-benzo[a]fluorene] | 120 ± 29.8 | 0.3 | 31.4 ± 4.6 |  |  |
| (4aS,5S)-5-(3,5-Dimethoxybenzyl)-1,1,4a,6-tetramethyl-1,2,3,4,4a,5,8,8a-octahydronaphthalene [Compound 11d] |  |  |  | 187 ± 9 | 165 ± 12.5 |
